Consider 7 compounds from ChEMBL document CHEMBL5465560, “Selectivity Literature for EUbOPEN Chemogenomic Library” (2024).

Structures are written as SMILES.

In assay [1] the target is T1, Myotonin-protein kinase (Homo sapiens) (UniProt Q09013).
T1 sequence (whole entry): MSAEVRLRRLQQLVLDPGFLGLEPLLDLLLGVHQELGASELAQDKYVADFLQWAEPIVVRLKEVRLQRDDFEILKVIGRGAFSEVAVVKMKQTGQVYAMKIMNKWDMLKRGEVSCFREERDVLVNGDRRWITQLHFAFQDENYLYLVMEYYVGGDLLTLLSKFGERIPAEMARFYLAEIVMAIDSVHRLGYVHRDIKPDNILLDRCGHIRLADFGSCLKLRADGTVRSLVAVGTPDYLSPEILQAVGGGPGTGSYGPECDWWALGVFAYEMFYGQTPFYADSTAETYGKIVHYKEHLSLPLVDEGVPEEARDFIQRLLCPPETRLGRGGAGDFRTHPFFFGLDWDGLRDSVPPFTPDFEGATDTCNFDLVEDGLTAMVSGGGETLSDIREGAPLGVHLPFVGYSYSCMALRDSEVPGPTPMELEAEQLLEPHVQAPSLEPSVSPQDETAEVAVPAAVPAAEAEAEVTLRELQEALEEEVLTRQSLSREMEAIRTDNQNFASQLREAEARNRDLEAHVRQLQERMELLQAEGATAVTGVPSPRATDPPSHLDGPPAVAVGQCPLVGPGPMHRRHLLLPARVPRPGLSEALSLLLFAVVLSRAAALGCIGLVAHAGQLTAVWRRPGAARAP
Conditions: at 10 µM.

In assay [2] the target is T2, Serine/threonine-protein kinase 3 (Homo sapiens) (UniProt Q13188).
T2 sequence (whole entry): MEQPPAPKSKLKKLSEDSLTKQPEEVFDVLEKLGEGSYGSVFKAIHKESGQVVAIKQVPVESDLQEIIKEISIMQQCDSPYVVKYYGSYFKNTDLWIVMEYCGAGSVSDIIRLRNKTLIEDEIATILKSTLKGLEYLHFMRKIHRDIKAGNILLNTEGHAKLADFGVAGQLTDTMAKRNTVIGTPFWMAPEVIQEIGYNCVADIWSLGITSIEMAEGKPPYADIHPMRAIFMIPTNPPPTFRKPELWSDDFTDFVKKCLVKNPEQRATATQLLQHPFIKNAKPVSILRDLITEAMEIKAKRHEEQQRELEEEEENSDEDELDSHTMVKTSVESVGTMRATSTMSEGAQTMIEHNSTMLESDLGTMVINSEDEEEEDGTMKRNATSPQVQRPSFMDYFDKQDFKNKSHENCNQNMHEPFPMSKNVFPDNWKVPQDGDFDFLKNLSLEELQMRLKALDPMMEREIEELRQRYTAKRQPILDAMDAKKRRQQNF
Conditions: at 10 µM.

For assay [3], the target named is Platelet-derived growth factor receptor alpha (Homo sapiens, UniProt P16234). The assay can be described thus: Selectivity interaction (Kinase screening (Upstate/Millipore)) EUB0000604a PDGFRA.
Chain of Platelet-derived growth factor receptor alpha (P16234 whole entry): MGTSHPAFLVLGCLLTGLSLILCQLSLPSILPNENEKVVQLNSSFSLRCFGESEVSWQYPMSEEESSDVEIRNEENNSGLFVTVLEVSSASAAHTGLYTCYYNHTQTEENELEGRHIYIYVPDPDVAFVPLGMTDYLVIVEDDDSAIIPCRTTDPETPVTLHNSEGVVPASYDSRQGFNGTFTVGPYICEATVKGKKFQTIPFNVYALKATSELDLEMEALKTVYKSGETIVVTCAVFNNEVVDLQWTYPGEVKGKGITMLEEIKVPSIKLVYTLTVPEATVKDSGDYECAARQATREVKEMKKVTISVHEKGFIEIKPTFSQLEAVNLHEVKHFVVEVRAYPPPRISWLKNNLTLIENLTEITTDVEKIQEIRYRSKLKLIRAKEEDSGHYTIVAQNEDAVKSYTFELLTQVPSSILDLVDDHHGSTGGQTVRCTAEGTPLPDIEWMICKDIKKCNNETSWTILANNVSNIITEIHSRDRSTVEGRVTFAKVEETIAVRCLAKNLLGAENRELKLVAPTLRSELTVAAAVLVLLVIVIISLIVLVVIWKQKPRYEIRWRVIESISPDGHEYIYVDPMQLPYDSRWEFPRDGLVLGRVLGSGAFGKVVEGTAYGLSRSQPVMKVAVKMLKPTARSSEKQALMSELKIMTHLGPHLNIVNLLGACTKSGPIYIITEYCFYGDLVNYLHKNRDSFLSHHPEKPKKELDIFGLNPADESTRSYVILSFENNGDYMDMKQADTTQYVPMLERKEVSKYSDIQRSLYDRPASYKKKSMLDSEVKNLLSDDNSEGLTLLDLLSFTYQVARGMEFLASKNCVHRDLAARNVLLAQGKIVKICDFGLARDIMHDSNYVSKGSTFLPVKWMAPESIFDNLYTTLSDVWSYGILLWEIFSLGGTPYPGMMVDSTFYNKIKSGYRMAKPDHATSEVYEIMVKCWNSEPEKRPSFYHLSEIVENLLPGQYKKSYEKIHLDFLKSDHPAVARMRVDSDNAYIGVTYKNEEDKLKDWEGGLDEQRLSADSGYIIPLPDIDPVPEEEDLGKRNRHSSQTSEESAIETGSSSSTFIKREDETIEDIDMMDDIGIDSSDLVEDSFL
The target of assay [4] is Ribosomal protein S6 kinase alpha-5 (Homo sapiens) (UniProt O75582). Description: Selectivity interaction (KinomeScan (DiscoverX)) EUB0000045b RPS6KA5. Conditions: at 10 µM.
Chain of Ribosomal protein S6 kinase alpha-5 (Homo sapiens) (O75582 whole entry, looked up): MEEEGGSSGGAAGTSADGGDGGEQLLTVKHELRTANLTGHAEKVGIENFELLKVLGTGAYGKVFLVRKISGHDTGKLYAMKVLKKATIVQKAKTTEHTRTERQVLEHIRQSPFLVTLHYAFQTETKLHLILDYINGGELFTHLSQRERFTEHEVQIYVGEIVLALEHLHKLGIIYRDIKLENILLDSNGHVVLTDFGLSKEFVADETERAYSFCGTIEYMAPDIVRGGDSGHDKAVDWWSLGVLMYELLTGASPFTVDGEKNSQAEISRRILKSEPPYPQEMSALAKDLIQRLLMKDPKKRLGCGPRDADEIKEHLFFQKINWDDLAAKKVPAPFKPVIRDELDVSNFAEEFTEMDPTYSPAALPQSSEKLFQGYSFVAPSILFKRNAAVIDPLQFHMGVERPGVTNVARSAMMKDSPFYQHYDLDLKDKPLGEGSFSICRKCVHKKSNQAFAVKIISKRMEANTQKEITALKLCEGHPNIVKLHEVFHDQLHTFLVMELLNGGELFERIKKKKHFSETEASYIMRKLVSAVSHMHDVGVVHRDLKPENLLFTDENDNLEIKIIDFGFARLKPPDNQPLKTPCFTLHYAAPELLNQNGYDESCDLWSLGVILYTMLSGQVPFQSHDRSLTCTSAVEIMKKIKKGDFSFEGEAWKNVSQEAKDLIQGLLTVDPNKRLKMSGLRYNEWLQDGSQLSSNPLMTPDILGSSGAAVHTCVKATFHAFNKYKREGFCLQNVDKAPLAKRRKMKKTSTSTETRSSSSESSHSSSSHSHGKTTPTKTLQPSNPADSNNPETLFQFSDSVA
Assay [5] deals with Bromodomain-containing protein 4 (Homo sapiens, UniProt O60885). The assay can be described thus: Selectivity interaction (Bromodomain panel (DSF asssay)) EUB0000270b BRD4.
For assay [6], the target named is T3, Cyclin-dependent kinase 11A (Homo sapiens) (UniProt Q9UQ88).
T3 sequence (whole entry): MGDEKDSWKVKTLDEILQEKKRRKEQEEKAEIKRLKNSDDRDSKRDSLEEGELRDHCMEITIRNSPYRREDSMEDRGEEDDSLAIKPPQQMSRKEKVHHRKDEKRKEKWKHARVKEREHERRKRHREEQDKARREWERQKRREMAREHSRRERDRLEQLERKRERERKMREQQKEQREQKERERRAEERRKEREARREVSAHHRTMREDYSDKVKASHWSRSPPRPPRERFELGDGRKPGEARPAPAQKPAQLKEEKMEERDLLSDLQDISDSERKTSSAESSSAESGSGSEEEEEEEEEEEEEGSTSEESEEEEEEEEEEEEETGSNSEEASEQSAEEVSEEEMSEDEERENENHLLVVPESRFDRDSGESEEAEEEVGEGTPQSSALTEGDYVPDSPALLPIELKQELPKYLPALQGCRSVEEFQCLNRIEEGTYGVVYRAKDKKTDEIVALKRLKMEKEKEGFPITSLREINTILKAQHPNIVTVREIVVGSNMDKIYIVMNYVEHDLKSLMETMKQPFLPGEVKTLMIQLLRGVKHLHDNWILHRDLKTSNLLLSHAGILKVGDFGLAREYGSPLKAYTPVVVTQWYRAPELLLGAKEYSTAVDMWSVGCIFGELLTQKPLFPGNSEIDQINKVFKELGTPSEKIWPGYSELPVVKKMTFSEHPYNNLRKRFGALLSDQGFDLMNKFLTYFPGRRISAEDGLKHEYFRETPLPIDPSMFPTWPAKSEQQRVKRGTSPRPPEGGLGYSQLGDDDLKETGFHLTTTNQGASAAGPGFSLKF
Description: Selectivity interaction (KinomeScan (DiscoverX)) EUB0000618a CDK11A. Conditions: at 10 µM.

Assay [7] deals with Vascular endothelial growth factor receptor 3 (Homo sapiens, UniProt P35916). Description: Selectivity interaction (KinomeScan (DiscoverX)) EUB0000618a FLT4. The conditions noted are these: at 10 µM.
Chain of Vascular endothelial growth factor receptor 3 (P35916 whole entry): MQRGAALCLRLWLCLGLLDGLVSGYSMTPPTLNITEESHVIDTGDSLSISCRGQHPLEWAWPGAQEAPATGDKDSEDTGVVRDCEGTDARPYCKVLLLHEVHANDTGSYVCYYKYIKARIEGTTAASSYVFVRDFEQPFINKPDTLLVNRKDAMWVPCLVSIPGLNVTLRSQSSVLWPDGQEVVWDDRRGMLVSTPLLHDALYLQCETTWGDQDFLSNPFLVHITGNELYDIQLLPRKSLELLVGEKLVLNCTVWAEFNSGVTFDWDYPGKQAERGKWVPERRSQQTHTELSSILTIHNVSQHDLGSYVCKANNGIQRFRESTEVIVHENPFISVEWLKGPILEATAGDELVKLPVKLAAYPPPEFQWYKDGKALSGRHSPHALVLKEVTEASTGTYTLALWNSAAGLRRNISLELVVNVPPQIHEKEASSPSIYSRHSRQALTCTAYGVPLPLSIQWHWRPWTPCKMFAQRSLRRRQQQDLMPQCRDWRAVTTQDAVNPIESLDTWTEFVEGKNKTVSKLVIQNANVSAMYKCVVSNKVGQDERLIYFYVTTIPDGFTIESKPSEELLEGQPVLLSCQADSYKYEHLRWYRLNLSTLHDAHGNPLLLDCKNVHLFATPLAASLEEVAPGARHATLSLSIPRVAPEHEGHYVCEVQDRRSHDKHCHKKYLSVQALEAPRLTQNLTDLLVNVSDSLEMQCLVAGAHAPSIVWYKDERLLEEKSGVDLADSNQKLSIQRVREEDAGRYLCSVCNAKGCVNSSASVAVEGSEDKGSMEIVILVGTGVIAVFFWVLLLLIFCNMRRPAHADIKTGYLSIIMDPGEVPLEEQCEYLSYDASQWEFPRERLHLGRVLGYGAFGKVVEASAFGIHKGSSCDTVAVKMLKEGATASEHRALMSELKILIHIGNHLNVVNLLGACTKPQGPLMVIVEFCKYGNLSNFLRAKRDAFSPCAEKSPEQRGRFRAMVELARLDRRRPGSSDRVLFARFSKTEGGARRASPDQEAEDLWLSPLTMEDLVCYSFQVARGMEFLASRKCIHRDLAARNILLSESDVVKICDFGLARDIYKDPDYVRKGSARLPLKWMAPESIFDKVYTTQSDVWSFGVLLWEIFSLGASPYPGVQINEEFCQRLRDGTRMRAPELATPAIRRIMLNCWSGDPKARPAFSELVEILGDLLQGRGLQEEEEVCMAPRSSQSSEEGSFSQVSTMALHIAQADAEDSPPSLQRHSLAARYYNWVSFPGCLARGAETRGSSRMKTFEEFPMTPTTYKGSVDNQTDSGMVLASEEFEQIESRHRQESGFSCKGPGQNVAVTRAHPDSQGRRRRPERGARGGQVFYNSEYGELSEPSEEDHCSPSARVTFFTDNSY
In assay [8] the target is T4, Serine/threonine-protein kinase DCLK2 (Homo sapiens) (UniProt Q8N568).
T4 sequence (whole entry): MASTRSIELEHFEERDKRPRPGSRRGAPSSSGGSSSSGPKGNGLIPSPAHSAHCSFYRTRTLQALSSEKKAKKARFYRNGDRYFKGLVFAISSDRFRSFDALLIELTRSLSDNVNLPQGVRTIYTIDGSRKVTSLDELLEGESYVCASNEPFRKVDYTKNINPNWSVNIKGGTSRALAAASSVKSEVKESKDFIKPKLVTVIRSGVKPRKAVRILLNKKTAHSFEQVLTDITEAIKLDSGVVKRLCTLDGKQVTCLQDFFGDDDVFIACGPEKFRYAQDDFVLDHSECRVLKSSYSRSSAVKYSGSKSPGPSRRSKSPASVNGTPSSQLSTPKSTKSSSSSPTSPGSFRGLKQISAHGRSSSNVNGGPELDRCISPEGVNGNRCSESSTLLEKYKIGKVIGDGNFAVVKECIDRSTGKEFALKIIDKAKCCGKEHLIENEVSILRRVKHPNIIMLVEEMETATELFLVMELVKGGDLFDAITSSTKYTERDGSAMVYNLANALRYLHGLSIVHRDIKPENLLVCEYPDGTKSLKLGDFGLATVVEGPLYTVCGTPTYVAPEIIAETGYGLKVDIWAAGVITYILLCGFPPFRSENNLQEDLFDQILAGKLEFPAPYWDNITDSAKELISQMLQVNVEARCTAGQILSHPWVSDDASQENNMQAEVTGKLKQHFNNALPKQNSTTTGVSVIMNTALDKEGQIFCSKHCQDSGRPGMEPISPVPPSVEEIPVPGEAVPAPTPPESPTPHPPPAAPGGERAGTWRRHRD
Description: Selectivity interaction (KinomeScan (DiscoverX)) EUB0000092b DCLK2. The conditions noted are these: at 10 µM.

In assay [1], `CCN(CC)CCCCNc1ncc2cc(-c3cc(OC)cc(OC)c3)c(NC(=O)NC(C)(C)C)nc2n1` came in with a % of control of 100%.

For `Cc1cc([C@@H](C)Nc2ccccc2C(=O)O)c2nc(N3CCOCC3)cc(=O)n2c1` [AZD-6482], in assay [2], the % of control was 66%.

In assay [3], `Cc1cnc(Nc2ccc(F)cc2Cl)nc1-c1c[nH]c(C(=O)N[C@H](CO)c2cccc(Cl)c2)c1` gave a % of inhibition of 3%.

On to `C=CC(=O)Nc1cc(-n2c(=O)ccc3cnc4ccc(-c5ccc(NS(C)(=O)=O)cc5)cc4c32)ccc1C`, for which the % of control in assay [4] stood at 80%.

The compound `Cc1cc(CN)cc(C)c1-c1ncn(C)c1-c1cncn1C` registered a dTM in assay [5] of -1.68 K.

As to `O[C@H]1CC[C@H](Nc2ncc3nc(Nc4c(F)cc(F)cc4F)n([C@H]4CCOC4)c3n2)CC1`, the % of control in assay [6] came to 98%; in assay [7] it was 55%.

For `CCC(=O)N1CCN(c2ccc(-n3c(=O)ccc4cnc5ccc(-c6cnc7ccccc7c6)cc5c43)cc2C(F)(F)F)CC1`, in assay [8], the % of control came out at 100%.
